Patent publication EP4385508A1, “FURAN FATTY ACIDS FOR ENHANCING MUSCLE MASS” (Centre de Coopération Internationale en Recherche …, priority 2022, dated 2024)

Experiments:
ULK1 = ULK1 phosphorylation and total level by Western blot in C2C12 myotubes; assay type: cell-based, Mouse; details: highest dose (50 µM)
Procedure: (§1) Mouse myoblasts of the C2C12 cell line (ATCC) were seeded at a plating density of 7000 cells/cm2 in 6-well plates. They were grown in DMEM high glucose (4.5g/l) supplemented with gentamycin (50 µg/mL), amphotericin (50 µg/mL), and fetal calf serum (10%). Terminal differentiation was induced at cell confluence by lowering the medium serum concentration (0.5%).
(§2) When indicated, FuFA-F2 was added to the culture medium at the indicated concentration. For the differentiation studies, FuFA-F2 was added at the confluence at the same time as the change in media condition. Three doses of FuFA-F2 were studied at a final concentration of 1, 10, or 50 µM. Human insulin was used at a concentration of 100 nM.
Protein levels were assessed by Western blotting. Total proteins were measured using the Bio-Rad protein assay (Hercules, CA, USA) according to the manufacturer's instructions. […]
AMP activated protein kinase (AMPK) is a crucial cellular energy sensor protein and is activated when intracellular ATP level decreases to regulate autophagy initiation (Hardie et al., 2012, Nat Rev Mol Cell Bio, Vol. 13 (4) : 251-262). […] The autophagy-related signaling was further evaluated by measuring the MTORC1 mediated phosphorylation […] at Ser757 which disrupts the interaction between ULK1 and AMPK. […] Therefore, the autophagic flux was assessed by measuring the conversion of LC3-I to LC3-II, through lipidation.

[1] = test system: complex IV (cytochrome c oxidase); test: Complex IV activity of C2C12 myotubes; assay type: cell-based; details: Mus musculus, C2C12, 72 h, 3 days, change vs control, trend p<0.07
Procedure: as §1, §2
Mitochondrial respiratory complex activities were determined as previously described (Casas et al., 2008, PloS ONE, Vol. 3(6) : e2501). Citrate synthase (CS) activity was measured according to Srere (Srere et al., 1967, Science, Vol. 158(3803) : 936-937) by following the color formation of 5-thio-2-nitrobenzoic acid at 412 nm. The enzymatic activity of complex IV (cytochrome c oxidase) was measured according to Wharton and Tzagoloff (Wharton et al., 1967, Methods in Enzymology, Vol. 10, Edn Elsevier BV, Amsterdam, The Netherlands), a spectrophotometer following the oxidation of reduced cytochrome c at 550 nm, pH 7.4, and 37 °C. Cytochrome c was reduced with sodium dithionite. […]

C2C12 myoblasts = test: C2C12 myoblast differentiation, fusion index by cytoimmunofluorescence; assay type: cell-based, Mouse; details: 5 days in differentiation medium
Procedure: as §1, §2
Cytoimmunofluorescence myoblast differentiation was assessed by observation of morphological changes and accumulation of muscle-specific markers. After methanol fixation and three washes with PBS-gelatin (0.2%), cells were labeled with an antibody raised against Troponin T (T6277, Sigma, diluted at 1:50) (Sigma-Aldrich, Saint-Quentin Fallavier, France). Nuclei were stained with Hoechst 33258 (1 µg/mL). To assess the extent of differentiation, the fusion index (percentage of nuclei incorporated into myotubes relative to the total number of nuclei) was calculated 120 h after adding the differentiation medium. Nuclei were counted on 10 images/dish using ImageJ software. […]

`CCCCCc1cc(C)c(CCCCCCCCC(=O)O)o1` [FuFA-F2] was tested, and the “ULK1 phosphorylation at Ser757” value (ULK1) was “decreased”, the “total Ulk level” value (ULK1) was “also decreased” and the activation at 10 µM [1] was 60%. The myoblast fusion index (C2C12 myoblasts; 50 µM, 57% for control, p<0.05) was 61% and the myoblast fusion index (C2C12 myoblasts; 1 and 10 µM (all doses except 50 µM)) was “no significant effects”.
